Data: patent publication US6825199B2, “7-Substituted quinazolin-2,4-diones useful as antibacterial agents” (Warner-Lambert Company, priority 1997, dated 2004)
Converted amounts (≈) assume the structure as drawn.

Legend:
Assay type in all cases: cell-based
B. subtilis RB1 = assay: Antibacterial assay, standard microtitration (MIC); conditions: Bacillus subtilis, Gram positive, read-out: Minimum Inhibitory Concentrations B. subtilis RB1
Experimental: (§1) Antibacterial assay: The compounds of the present invention were tested against an assortment of Gram negative and Gram positive organisms using standard microtitration techniques (Cohen, et al., Antimicrob. Agents Chemother., 1985;28:766; Heifetz, et al., Antimicrob. Agents Chemother., 1974;6:124).

E. coli B90 = assay: Antibacterial assay, standard microtitration (MIC); conditions: Escherichia coli, B90; Gram negative; read-out: Minimum Inhibitory Concentrations E. coli B90
Experimental: as §1

E. coli MC4100 = assay: Antibacterial assay, standard microtitration (MIC); conditions: Escherichia coli, MC4100; Gram negative; read-out: Minimum Inhibitory Concentrations E. coli MC4100
Experimental: as §1

E. coli Tol C = assay: Antibacterial assay, standard microtitration (MIC); conditions: Escherichia coli, read-out: Minimum Inhibitory Concentrations E. coli Tol C
Experimental: as §1

S. aureus 29213 = assay: Antibacterial assay, standard microtitration (MIC); conditions: Staphylococcus aureus, 29213; Gram positive; read-out: Minimum Inhibitory Concentrations S. aureus 29213
Experimental: as §1

S. pyogenes C203 = assay: Antibacterial assay, standard microtitration (MIC); conditions: Streptococcus pyogenes, C203; Gram positive; read-out: Minimum Inhibitory Concentrations S. pyogenes C203
Experimental: as §1

[1] = tested on: Chinese hamster V79 cells; assay: Mammalian cell cytotoxicity, colony formation; conditions: 3 hours drug treatment, colony formation after 5 days
Experimental: The cytotoxicity was determined in Chinese hamster V79 cells. The cells were grown overnight and treated with drug for 3 hours at 37° C., at which time the compound containing media was replaced with fresh media. The cells were then incubated for 5 days and examined for colony formation.

CCn1c(=O)n(O)c(=O)c2cc(F)c(N3CCOCC3)cc21 [Example 3, 1-Ethyl-6-fluoro-3-hydroxy-7-morpholin-4-yl-1H-quinazoline-2,4-dione]
MIC (B. subtilis RB1): 8 µg/mL (≈ 25.9 µM)
MIC (E. coli B90): 4 µg/mL (≈ 12.9 µM)
MIC (E. coli MC4100): > 64 µg/mL
MIC (E. coli Tol C): 2 µg/mL (≈ 6.47 µM)
MIC (S. aureus 29213): > 64 µg/mL
MIC (S. pyogenes C203): > 64 µg/mL
50% Cytotoxic Conc. in CHO Cells [1]: 176 µg/mL
